Experimental data reported in patent US11959929B2, “Method of quantifying lysergic acid diethylamide (LSD) and 2,3-dihydro-3-hydroxy-2-oxo lysergide (O-H-LSD) in human plasma” (Universitatsspital Basel, priority 2020, dated 2024).
Values joined by “and” are separate entries in the source; they are usually repeats but may differ in a detail not shown here. Identical values can stand only once.

Legend:
[1] = Freeze/thaw stability tests in human plasma (three cycles, about −20° C.); assay type: physicochemical; settings: for Change in concentration [%]: 3 F/T cycles vs Baseline; for Accuracy: single QC replicate
Source text: (§1) Each analyte had to be stable in human plasma for at least three freeze-thaw cycles (for repeated sample preparations) and at ambient temperature for at least eight hours (maximal duration of sample preparation). Measured samples should be stable for a second injection when the first analytical run was not valid. The analytes had to be stable in the matrix at the intended storage temperatures and study duration.
(§2) An analyte was considered stable at one of the above tests when no increase or decrease of the analyte concentration of more than 15% for the mean of at least three analyzed QC samples at low, medium and at high concentration was observed.
Seven of each LLOQ, QCLOW, QCMID, QCHIGH, and ULOQ sample in human plasma were stored at about −20° C. for at least 24 hours and thawed unassisted at ambient temperature. When completely thawed, the samples were refrozen for at least 12 hours under the same conditions. The freeze-thaw cycle was repeated two more times. After the third cycle the samples were worked up and analyzed. The concentrations in the frozen and thawed samples were compared with freshly processed QC samples. Concentrations were calculated based on two freshly prepared CALs measured at the beginning and the other at the end of the validation run.

[2] = Clinical application: plasma concentration-time profile of LSD and O-H-LSD after a single oral 5 μg LSD dose in healthy volunteers; assay type: in vivo, human; settings: three healthy volunteers
Method: To examine the application of the developed method, LSD and O-H-LSD concentrations were quantified in plasma samples of three healthy volunteers receiving a single oral dose of 5 μg. This corresponds to a very low LSD dose, used in LSD microdosing clinical trials (Holze et al., 2021a). The study was conducted in accordance with the Declaration of Helsinki and approved by the Medical Ethics Committee of the Academic Hospital of Maastricht and Maastricht University. The use of LSD in humans was authorized by the Dutch Drug Enforcement Administration. All volunteers provided written informed consent prior to study participation. To establish concentration time profiles, blood samples were collected in lithium heparin coated tubes at the following time points: 0, 0.5, 1, 1.5, 2, 3, 4, 6 after treatment. Blood samples were centrifuged, and plasma was frozen at −20° C. until analysis.
The application of the method was assessed by analyzing the PK of LSD and O-H-LSD in three healthy volunteers treated with an oral dose of 5 μg LSD base (FIG. 5). An oral dose of 5 μg LSD base in ethanol (Holze et al., 2021) was administered to three healthy volunteers. Plasma concentrations of LSD and O-H-LSD were quantified before and up to six hours post-treatment. […] Mean values and the standard deviations are illustrated.
The maximal plasma level of LSD and O-H-LSD was on average 178 pg/ml (SD: 30.6 pg/ml) and 10.4 pg/ml (SD: 2.59 pg/ml), respectively. LSD reached Tmax approximately after 1 hour post-treatment, whereas O-H-LSD peaked after 3 hours. The LSD concentrations measured after a dose of only 5 μg were approximately 7 to 18 times higher than the methods limit of quantification. Thus, the PK of LSD could straightforwardly be established also for very low so-called microdoses (Kuypers et al., 2019). In the case of O-H-LSD, a larger amount of plasma sample was required to determine the plasma concentration time profile after a dose of 5 μg. Three times more plasma was utilized (150 instead of 50 μl), which was extracted as outlined above using however three-fold more acetonitrile for the extraction. Sensitivity was increased by evaporating the extract and reconstituting the residue in a mixture of 150 μl of mobile phase A and mobile phase B (9/1 v/v). […] In future, it will also be considered to inject a larger amount of extract, which is in a first step retained and concentrated on a trapping column. In a second step, the direction of the flow is inverted and so that the sample can be loaded and eluted on the analytical column. This column switching procedure, will increase the sensitivity in the event that the sample can be retained on the trap column. Importantly, the time-consuming solvent evaporation step can thereby be avoided.

[3] = Reinjection reproducibility of worked-up plasma samples (overnight at 10° C. in autosampler; 1 week at −20° C.); assay type: physicochemical, human; settings: for Change in concentration: 1 night at 10° C. in the autosampler vs Baseline; for Change in concentration [%]: 8 days at −20° C. vs Baseline; for Accuracy: single QC replicate
Source text: as §1, §2
Worked-up and measured Cal and QC samples (prepared in human plasma) of a valid run were repeatedly analyzed. Reinjection was performed after overnight storage at 10° C. (autosampler) and after 1-week storage at −20° C. The run was checked according to the acceptance criteria for validation runs. The calculated mean values for QC samples were compared between the original and reinjected run.

[4] = QCHIGH: 1000 pg/ml, 3 F/T cycles
[5] = ULOQ: 10000 pg/ml, 3 F/T cycles
[6] = LLOQ: 10 pg/ml, reinjection after 8 days at −20° C.
[7] = QCHIGH: 1000 pg/ml, reinjection after 8 days at −20° C.
[8] = QCLOW: 25 pg/ml, reinjection after 8 days at −20° C.
[9] = QCMID: 100 pg/ml, reinjection after 8 days at −20° C.
[10] = ULOQ: 10000 pg/ml, reinjection after 8 days at −20° C.

## CCN(CC)C(=O)C1C=C2c3cccc4c3C(O)(C[C@H]2N(C)C1)C(=O)N4 (some centres unmarked) [O-H-LSD, 2,3-dihydro-3-hydroxy-2-oxo lysergide]
[1]; LLOQ: 10 pg/ml, 3 F/T cycles
  Accuracy, Intra-assay Mean: 97%
  Found at, Intra-assay Mean: 9.7 pg/mL
  Accuracy: 95.9% and 97.1% and 81.7% and 95.2% and 108% and 104% and 73.9* %
[1]; LLOQ: 10 pg/ml
  Change in concentration [%]: 6.46%
[1]; LLOQ: 10 pg/ml, Baseline
  Accuracy, Intra-assay Mean: 91.1%
  Found at, Intra-assay Mean: 9.11 pg/mL
  Accuracy: 95% and 88.9% and 89.4%
[1]; [4]
  Accuracy, Intra-assay Mean: 96.7%
  Found at, Intra-assay Mean: 967 pg/mL
  Accuracy: 95% and 93.1% and 97.5% and 96.2% and 99.5% and 97.7% and 98.1%
[1]; QCHIGH: 1000 pg/ml
  Change in concentration [%]: 0.123%
[1]; QCHIGH: 1000 pg/ml, Baseline
  Accuracy, Intra-assay Mean: 96.6%
  Found at, Intra-assay Mean: 966 pg/mL
  Accuracy: 97.7% and 96.2% and 95.9%
[1]; QCLOW: 25 pg/ml, 3 F/T cycles
  Accuracy, Intra-assay Mean: 96.9%
  Found at, Intra-assay Mean: 24.2 pg/mL
  Accuracy: 109% and 96.6% and 91.4% and 101% and 97.5% and 89.3% and 92.9%
[1]; QCLOW: 25 pg/ml
  Change in concentration [%]: 1.57%
[1]; QCLOW: 25 pg/ml, Baseline
  Accuracy, Intra-assay Mean: 95.3%
  Found at, Intra-assay Mean: 23.8 pg/mL
  Accuracy: 94.7% and 91.5% and 99.8%
[1]; QCMID: 100 pg/ml, 3 F/T cycles
  Accuracy, Intra-assay Mean: 98.7%
  Found at, Intra-assay Mean: 98.7 pg/mL
  Accuracy: 95.4% and 102% (2×) and 98.9% and 100% and 94.8% and 97.3%
[1]; QCMID: 100 pg/ml
  Change in concentration [%]: 3.7%
[1]; QCMID: 100 pg/ml, Baseline
  Accuracy, Intra-assay Mean: 95.2%
  Found at, Intra-assay Mean: 95.2 pg/mL
  Accuracy: 95.7% and 98.6% and 91.4%
[1]; [5]
  Accuracy, Intra-assay Mean: 94.9%
  Found at, Intra-assay Mean: 9490 pg/mL
  Accuracy: 92.9% and 92.6% and 96.2% and 96% and 94.8% and 94.4% and 97.2%
[1]; ULOQ: 10000 pg/ml
  Change in concentration [%]: −0.589%
[1]; ULOQ: 10000 pg/ml, Baseline
  Accuracy, Intra-assay Mean: 95.4%
  Found at, Intra-assay Mean: 9540 pg/mL
  Accuracy: 94.2% and 92.3% and 99.7%
[1]; human plasma QC samples, −20° C., three freeze/thaw cycles, vs freshly processed QC
  Change in plasma concentration following three freeze/thaw cycles: ≤ 6.46%
[2]; single oral dose of 5 μg LSD base
  Tmax (time of peak plasma level post-treatment): 3 h
[2]; single oral dose of 5 μg LSD base in ethanol, LC-MS/MS, O-H-LSD measured as metabolite using 150 μl plasma
  maximal plasma level (average): 10.4 pg/mL
[3]; LLOQ: 10 pg/ml
  Change in concentration: 1.86%
  Change in concentration [%]: −2.09%
[3]; QCHIGH: 1000 pg/ml
  Change in concentration: 2.08%
  Change in concentration [%]: −1.05%
[3]; QCLOW: 25 pg/ml
  Change in concentration: −0.149%
  Change in concentration [%]: −0.294%
[3]; QCMID: 100 pg/ml
  Change in concentration: −1.59%
  Change in concentration [%]: 1.9%
[3]; ULOQ: 10000 pg/ml
  Change in concentration: 0.101%
  Change in concentration [%]: −1.27%
[3]; LLOQ: 10 pg/ml, Baseline
  Accuracy, Intra-assay Mean: 107%
  Found at, Intra-assay Mean: 10.7 pg/mL
  Accuracy: 108% and 113% and 102% and 88.5% and 120% and 97.8% and 116%
[3]; [6]
  Accuracy, Intra-assay Mean: 104%
  Found at, Intra-assay Mean: 10.4 pg/mL
  Accuracy: 99.5% and 106% and 116% and 107% and 94.2% and 93.9% and 113%
[3]; QCHIGH: 1000 pg/ml, Baseline
  Accuracy, Intra-assay Mean: 103%
  Found at, Intra-assay Mean: 1030 pg/mL
  Accuracy: 103% (2×) and 105% (2×) and 99.6% and 99% and 106%
[3]; [7]
  Accuracy, Intra-assay Mean: 102%
  Found at, Intra-assay Mean: 1020 pg/mL
  Accuracy: 101% (2×) and 105% and 99.3% and 100% and 102% and 104%
[3]; QCLOW: 25 pg/ml, Baseline
  Accuracy, Intra-assay Mean: 105%
  Found at, Intra-assay Mean: 26.2 pg/mL
  Accuracy: 103% and 116* % and 108% (2×) and 109% and 101% and 100%
[3]; [8]
  Accuracy, Intra-assay Mean: 105%
  Found at, Intra-assay Mean: 26.1 pg/mL
  Accuracy: 104% (2×) and 115% and 109% and 96.5% and 108% and 97.3%
[3]; QCMID: 100 pg/ml, Baseline
  Accuracy, Intra-assay Mean: 103%
  Found at, Intra-assay Mean: 103 pg/mL
  Accuracy: 101% and 102% (2×) and 104% and 106% and 108% and 98.5%
[3]; [9]
  Accuracy, Intra-assay Mean: 105%
  Found at, Intra-assay Mean: 105 pg/mL
  Accuracy: 109% (2×) and 98% and 104% and 106% and 102% and 107%
[3]; ULOQ: 10000 pg/ml, Baseline
  Accuracy, Intra-assay Mean: 100%
  Found at, Intra-assay Mean: 10000 pg/mL
  Accuracy: 101% (2×) and 98.5% and 98.4% and 97.7% and 102% (2×)
[3]; [10]
  Accuracy, Intra-assay Mean: 98.8%
  Found at, Intra-assay Mean: 9880 pg/mL
  Accuracy: 97.3% and 97.6% and 97.5% and 96.9% and 103% and 98.8% and 101%
[3]; worked-up human plasma samples, 8 days at −20° C.
  Deviations of the means of the QCs of the two runs (reinjection) after 8 days at −20° C.: −2.09% to +1.9
[3]; worked-up human plasma samples, overnight at 10° C. in the autosampler
  Deviations of the means of the QCs of the two runs (reinjection) after overnight storage at 10° C.: −1.59% to +2.08
